Test results as given in patent US10201165B2 (Board of Trustees of Michigan State University, priority 2014, dated 2019).
Where two headings read alike, the source gives them in different places.

Legend:
[1] = system: fungi; assay: Antifungal activity (test not specified); settings: compound identified from leaves of Prunus maackii
[2] = system: Cladosporium cucumerinum; assay: TLC bioassay for detection of antimicrobial activity; assay type: cell-based; settings: FIG. 3, white areas
Protocol: A TLC-bioassay of extract from Prunus maackii, P. serotina, and P. mahelab was conducted using three different extraction methods. Periderm tissue was extracted in 80% acetone, in hot water, or in water in an autoclave. Extracts were tested for antimicrobial activity by a thin layer chromatography bioassay on cellulose TLC plates. Samples were separated with, and the plates were developed in, water.
For the TLC bioassay for the detection of antimicrobial activity, 5 μL of the samples (column fractions, suspended in 80% methanol) were applied to Analtech® silica gel (TLC) plates and were developed in a TLC tank (30×20×10 cm) using 100 mL of chloroform:methanol (8.5:1, v/v). Within 24 hours of developing the TLC plates, the plates were evenly sprayed with a dense fungal suspension of C. cucumerinum in ½ strength potato-dextrose broth and then placed in a moist incubation chamber for three days to allow fungal growth.

[3] = system: fungi; settings: compound tentatively assigned to HPLC-MS peak around 255 g/mol; cited from earlier work

## COc1c(O)cc(O)c2c1OC(c1ccccc1)CC2=O (stereo not drawn) [Dihydrowogonin, 5,7-dihydroxy-8-methoxy-2-phenyl-2,3-dihydrochromen-4-one]
[1]
  Antifungal activity: antifungal activity

## COc1c(O)cc2oc(-c3ccccc3)c(O)c(=O)c2c1O [alnusin, 3,5,7-trihydroxy-6-methoxyflavone]
[2]
  Fungal inhibition on TLC plate by isolated compounds: fungal inhibition

## O=C1C[C@@H](c2ccccc2)Oc2cc(O)cc(O)c21 [pinocembrin]
[3]
  Antifungal activity: antifungal activity
